From US20220143183A1, “PHOTOSWITCHABLE PROTACS AND SYNTHESIS AND USES THEREOF” (New York University, priority 2019, published 2022) come the findings set out here.

One assay deals with RS4;11 lymphoblast cells. The assay can be described thus: Cell viability assay (Promega MTS), dark or pulsed irradiation. Conditions: 72 h; for EC50: Homo sapiens. In kind it is cell-based, human. As to the method: Optical control of BRD2-4 with PHOTACs. To assess the biological activity of the PHOTACs, their effect on the viability of RS4;11 lymphoblast cells was tested. Cells were treated in a 96-well plate with increasing concentrations of PHOTACs and were either irradiated with 390 nm light pulses (100 ms every 10 s) for 72 h or incubated with the compound in the dark. Subsequently, cell viability assays (Promega MTS) were performed, as previously described.
Cell culture. The human acute lymphoblastic leukemia RS4;11 (ATCC® CRL-1873™) cell line was purchased from the American Type Culture Collection and cultured in RPMI1640 medium (Gibco) with 10% fetal bovine serum (FBS) and 1% penicillin/streptomycin (PS) in a humidified incubator at 37° C. with 5% CO2 in air. Cells were divided every 2-3 days and the concentration was maintained between 1×10^5 and 1×10^6 cells/mL. For the experiments compounds were serially diluted in RPMI160 without the dye phenol red (Gibco) to reduce the influence of the dye by absorption. Azobenzene stocks and dilutions were strictly kept in the dark and prepared under red light conditions.
Colorimetric MTT Assays. The activity of dehydrogenase enzymes in metabolically active cells, as a quantitative measurement for cytotoxicity and proliferation, was determined by colorimetric measurement of the reduction of [3-(4,5-dimethylthiazol-2-yl)-5-(3-carboxymethoxyphenyl)-2-(4-sulfophenyl)-2H-tetrazolium (MTS) to formazan. The absorbance of formazan at 490 nm was measured on a FLUOstar Omega microplate reader (BMG Labtech).
Cells were treated with different concentrations, ranging from 10 μM to 1 nM, of our compounds and incubated on a 96-well plate for 72 h. They were placed in light-proof boxes and exposed to the lighting conditions specified in the experiment for 72 h. Next, 10 μL of Promega CellTiter 96® AQueous One Solution Reagent was added to each well and incubated for further 4-7 hours. The absorbance at 490 nm was then recorded with a 96-well plate reader.
LED illumination. For illumination of the cells we used the cell disco system as previously described in the literature^[25]. 390 nm 5 mm LEDs were purchased from Roithner Lasertechnik. Cells were preirradiated for 1 min at 390 nm, followed by 100 ms pulses every 10 s in 96- or 6-well plates.

The subject of another assay is c-MYC. The experiment in a line: Immunoblot of c-MYC levels in RS4;11 cells. It counts as cell-based, human. As to the method:
Photoactivatable degraders and inhibitors of BRD4, c-MYC levels were also affected.
The slight effect on c-MYC can be explained by inhibition of BRD4 with the (+)-JQ1 derivative PHOTAC-I-3 in the absence of targeted degradation.
Western Immunoblot Analysis. Rabbit monoclonal Antibodies for BRD4 (#13440), β-Actin (#4970) c-Myc (#5605) and Anti-rabbit IgG, HRP-linked Antibody (#7074) were purchased from Cell Signalling Technologies.
Cells were incubated with different concentrations of selected compounds. They were placed in a light-proof box and preirradiated for 1 min at 390 nm followed by 100 ms pulses every 10 s or were kept in the dark for 4 h.
Cultured cells were collected by centrifugation and washed twice with cold PBS. The supernatant was removed and each cell pellet was lysed in 100 μL NP40-Cell-Lysis Buffer+0.1% SDS+1 mM PMSF+ protease inhibitor cocktail (Sigma Aldrich) for 30 min on ice, with vortexing at 10-minute intervals. Afterwards, cells were centrifuged at 13.000 rpm for 10 min at 4° C. Samples were stored on ice and the supernatant was collected for protein concentration determination using a Thermofisher Scientific Pierce™ Coomassie Plus (Bradford) Assay Kit.
The samples were diluted each with 5 μL Laemmli sample buffer Invitrogen (NuPAGE LDS Sample Buffer 4×) and 1 μL DTT, heated at 95° C. for 5 min. […]

Entries after “also recorded” stand apart in the source; their conditions may differ.

Broadly, the EC50 is the concentration needed to bring the measured effect to its halfway point. Low values mean an effect from little substance, high ones a need for much substance. For the compound `COc1cc(/N=N/c2cccc3c2CN(C2CCC(=O)NC2=O)C3=O)cc(OC)c1OCC(=O)NCCCCNC(=O)C[C@@H]1N=C(c2ccc(Cl)cc2)c2c(sc(C)c2C)-n2c(C)nnc21` (stereo partly drawn) [PHOTAC-I-3, 2-((S)-4-(4-chlorophenyl)-2,3,9-trimethyl-6H-thieno[3,2-f][1,2,4]triazolo[4,3-a][1,4]diazepin-6-yl)-N-(4-(2-(4-((E)-(2-(2,6-dioxopiperidin-3-yl)-1-oxoisoindolin-4-yl)diazenyl)-2,6-dimethoxyphenoxy)acetamido)butyl)acetamide], the “EC50 difference dark vs 390 nM” value in the assay with RS4;11 lymphoblast cells is 7.1 fold. Moreover, the “light dependence of activity in viability assay” value in the assay with RS4;11 lymphoblast cells (dark vs pulsed 390 nm irradiation) was “largest difference between light and dark activity”. Besides, the EC50 turned out to be 88.5 nM in the assay with RS4;11 lymphoblast cells (RS4-11, light or radiation study, irradiated with 390 nm light pulses (100 ms every 10 s)) and 631 nM in the assay on RS4;11 lymphoblast cells (RS4-11, in the dark). Further, the c-MYC downregulation result in the assay with c-MYC (390 nm pulse irradiation) was “more pronounced when cells were pulse-irradiated; also recorded: c-MYC downregulation over 24 hours”. The c-MYC levels result in the assay on c-MYC (in the dark) was “relatively little effect on c-MYC levels”.
